Results: patent US20040037806A1, “Aldosterone blocker therapy to prevent or treat inflammation-related disorders” (Pharmacia Corporation, priority 2002, published 2004)
Entries after “also recorded” stand apart in the source; their conditions may differ.

What was measured:
Assay type in all cases: in vivo, rat
[1] = Assay A: angiotensin II infusion model, heart histology (hematoxylin&eosin), vascular inflammation and myocardial injury; conditions: Wistar rats, 1% NaCl, angiotensin II 25 ng/min sc, 4 weeks, 10/group; eplerenone 100 mpk; aldosterone replacement in adrenalectomized rats
Text: Assay A: In Vivo Angiotensin II Infusion Model
Male Wistar rats (n=50, 10/group; BW=200 g)
Sacrifice by exanguination after 4 weeks. Blood was be collected in dry tubes for determination of serum electrolytes and in EDTA-containing tubes for measurement of aldosterone and corticosterone levels
Hearts were stained with hematoxylin&eosin and have been analyzed for determination of morphologic abnormalities (i.e. necrosis, vascular injury).

cyclooxygenase-2 (COX-2) = test: Assay A: cyclooxygenase-2 immunostaining of hearts; conditions: angiotensin II-infused, saline-drinking Wistar rats, eplerenone 100 mpk, aldosterone replacement in adrenalectomized rats
[2] = Assay C: histopathologic analysis, semi-quantitative myocardial injury score 0 to 4; conditions: 7, 14 and 30 days; aldosterone+salt alone or with eplerenone 100 mg/kg/day
Protocol: The procedure of Assay B was expanded upon in a further study. […] Myocardial tissue from animals in each treatment group was examined after 7, 14, or 30 days of treatment. […] Lesions were preceded by the expression and progressive upregulation of proinflammatory molecules. […] Prior to surgery the animals were individually weighed and placed in one of the following groups: […] Potassium chloride supplementation was added to the saline solution in order to prevent the potential hypokalemia associated with aldosterone excess. Treatment At the time of the surgery, an Alzet 2002 osmotic minipump (Alza Corp., Palo Alto, Calif.) containing either vehicle (9% ethanol/87% propylene glycol/4% dH2O) or 1.0 mg/mL d-aldosterone (Sigma Chemical, St. Louis, Mo.) was inserted subcutaneously at the nape of the neck. Aldosterone was administered at a dose of 0.75 µg/hour. […] Animals were sacrificed from each group (n=8-13) after 7, 14, or 30 days of treatment. The equatorial regions of the heart were routinely processed into paraffin with an automated tissue processor (Hypercenter XP, Shandon/Lipshaw Inc., Pittsburgh, Pa.) and embedded into fresh paraffin apical side down (Shandon Embedding Center, Shandon/Lipshaw Inc.). […] Semi-quantification of myocardial injury was performed as described previously with minor modifications (7). […]

| Structure (SMILES) | Vascular inflammatory lesions in the coronary arteries / heart [1] | Cyclooxygenase-2 expression in the heart (immunostaining) (cyclooxygenase-2 (COX-2)) | Cyclooxygenase-2 expression in the heart (immunostaining) (cyclooxygenase-2 (COX-2); listed as Eplerenone) | Myocardial tissue damage (histopathology) [2] |
| --- | --- | --- | --- | --- |
| COC(=O)[C@@H]1CC2=CC(=O)CC[C@]2(C)[C@@]23O[C@@H]2C[C@@]2(C)[C@@H](CC[C@@]24CCC(=O)O4)[C@H]13 [eplerenone] | prevention by eplerenone (epoxymexrenone) of vascular inflammation; also recorded: one of the ten | prevention by eplerenone of induction of COX-2 expression | markedly reduced and in most cases completely prevented the expression of cycloxygenase-2 | markedly attenuated myocardial injury at all time points |
| C[C@]12CCC(=O)C=C1CC[C@@H]1[C@@H]2[C@@H](O)C[C@]2(C=O)[C@@H](C(=O)CO)CC[C@@H]12 [aldosterone] | restored the severe coronary and myocardial inflammation and injury | restored the presence of cycloxygenase-2 in coronary arteries |  | No vascular or myocardial lesions; also recorded: focal arterial and myocardial alterations were observed starting at 14 days |
